Assay results taken from a melting point compilation (Tetko et al.; mined from patent text by program, amines drawn as free bases though some values may be those of a salt).

| melting point | SMILES |
| --- | --- |
| 168 to 169 °C | COc1ccc(N2CCN(c3ccc(F)cc3)CC2)c(-c2ccc(N(C)C)cc2)n1 |
| 111 to 112 °C | CC(C)CC[C@@H]1[C@H](c2ccccc2)OC(=O)N1CCCN1CCCCC1 (racemic) |
| 171 to 173 °C | O=C(O)c1cc(S(=O)(=O)Oc2ccccc2-c2ccc(-c3c(Cc4ccccc4)oc4ccccc34)cc2)ccc1O |
| 235 to 237 °C | CN1CCN(c2ccccc2C=C2C(=O)Nc3ccc(Cl)cc32)CC1 |
| 107 to 110 °C | Clc1nc(SCc2cccc3ccccc23)nc2c1CCN2 |
| 41 to 42 °C | Cc1cnc(-c2nn(C)c(OC(F)F)c2Cl)c(F)c1 |
| > 250 °C | COc1cc2c(Nc3ccc(Cl)cc3F)ncnc2cc1OCCCn1ccc(=O)cc1 |
| 136 to 137 °C | O=[N+]([O-])c1ccc(OCCN2CCC(Cc3ccccc3)CC2)cc1O |
| 175 to 176 °C | CCCc1nc(-n2c(C)ccc2C)c(C(=O)OC)[nH]1 |
| 122 to 125 °C | COc1cc2oc(=O)c3c(c2cc1OC)CCN(CCN1CC2CCCC(C2)C1)C3 |
| 65.5 to 66.5 °C | CC(C)n1nc(C(Cl)C(=O)c2cccc(F)c2)ccc1=O (configuration not stated) |
| 106 to 107 °C | ClC(Cl)(Cl)c1nsc(N2CCCC2)n1 |
| 77 °C | Cc1ccc(-n2cnnc2C(F)(F)F)c(C)c1 |
| 200 to 201 °C | CC1(C)C(c2ccccc2)=Nc2ccc(C3=NNC(=O)CC3)cc21 |
| 150 to 151 °C | COc1cc2c(cc1C(F)(F)F)N(C(=O)Nc1cc(-c3ccccc3)cc(-c3cccnc3)c1)CC2 |
| 135 to 136 °C | COC(=O)C(=O)CC(=O)/C=C/c1ccc(Cl)cc1 |
| 218 to 228 °C | COc1cc(F)ccc1-c1cncc(OC2SCC(O)C(O)C2O)c1 (configuration not stated) |
| 230 to 231 °C | O=C(O)c1cccc(-c2cccc3c2CCN(Cc2cccc(C(F)(F)F)c2)C3)c1 |
| 243 to 244 °C | CNc1ncc2cc(-c3c(Cl)cccc3Cl)c(=O)n(C)c2n1 |
| 130 to 134 °C | COC(=O)c1ccc(NC(C)=O)c(NC(=O)C(COC(C)=O)OC(C)=O)c1 (configuration not stated) |
| 201 to 205 °C | CNc1c(F)cc2c(=O)c(C(=O)O)cn(-c3nc(NCCO)c(F)cc3F)c2c1Cl |
| 254 °C | CC(=O)C1=C(C)Nc2nc(N)nc(N)c2C1c1ccccc1Cl (configuration not stated) |
| 146 °C | O=C(c1nc(-c2ccccc2)nc2ccccc12)N1CCC(CCO)CC1 |
| 100 °C | CN1CCC(OC(c2cccc(N)c2)c2nc3ccccc3[nH]2)CC1 (configuration not stated) |

| melting point | SMILES |
| --- | --- |
| 92 to 93.5 °C | COCCOc1ncc(Cl)c(N)c1Cl |
| 152 to 156 °C | CC(Nc1nc(NNC(=O)CCCl)nc(Cl)c1-c1c(F)cccc1Cl)C(F)(F)F (configuration not stated) |
| 117 to 119 °C | CCOC(=O)C=Cc1ccc2c(c1)CC(CNC(=O)OC(C)(C)C)CC2 (configuration not stated) |
| 101 to 102 °C | COC(c1cccs1)C1C(c2ccccc2)CC(=O)N1C (configuration not stated) |
| 88 to 90 °C | OCCc1ccc(Nc2ncc3c(n2)-c2ccccc2C(c2cccc(Br)c2)C3)cc1 (configuration not stated) |
| 217 to 221 °C | N#Cc1ccc2[nH]cc(CCN3C(=O)c4ccccc4C3=O)c2c1 |
| 222 to 223 °C | CN(Cc1ccccc1)Cc1c(-c2ccc(NC(=O)C(C)(C)O)cc2)sc2c1c(=O)c(C(=O)c1ccccc1)cn2Cc1c(F)cccc1F |
| 177 to 179 °C | Cc1noc(-c2ccc(C(=O)N3Cc4cccn4Cc4ccccc43)cc2)n1 |
| 110 to 112 °C | O=[N+]([O-])c1c(Br)nn(Cc2ccccc2)c1NCCO |
| 108 °C | Nc1cccc(-c2cccnc2)n1 |
| 66.5 to 67 °C | CSCCC1(C)CCc2c(C)c(O)c(C)c(C)c2O1 (configuration not stated) |
| 258 to 260 °C | CC=CC=CC(=O)Nc1ccc2ncnc(Nc3cccc(Br)c3)c2c1 |
| 100 to 103 °C | O=S1CCOCC1c1ccc(Cl)c(Cl)c1 (configuration not stated) |
| 149 to 151 °C | CCCCn1c(CCOC)nc2c(N)nc3ccccc3c21 |
| 191 to 194 °C | CCOc1nc(-c2ccc(F)cc2C)c2c(n1)N(c1c(F)cccc1F)C(=O)NC2 |
| 188 to 189 °C | O=C(Cl)OCC1c2c(c3ccccc3c3ccccc23)-c2c1c1ccccc1c1ccccc21 |
| 233 to 234 °C | COc1ccc(Cn2c(=O)[nH]c3nccnc3c2=O)cc1 |
| 116 to 119 °C | Cc1ccccc1C(=O)Oc1cc(O)ccn1 |
| 158 to 160 °C | CN1CCC(c2c[nH]c3ccc(C4CN=CS4)cc23)CC1 (configuration not stated) |
| 88.5 to 89.5 °C | CCCc1c(OCCCOc2ccc([C@H]3OC(=O)C[C@H]3C)cc2)ccc(C(C)=O)c1O |
| 84 to 86 °C | Cc1ccc(S(=O)(=O)OCC2Cc3cc(F)cc(Br)c3O2)cc1 (configuration not stated) |
| 111 to 112 °C | CSC(=O)c1c(O)ccc2ccccc12 |
| 167 to 168 °C | CN1CCN(C(=O)c2cc(S(=O)(=O)NC3CCCCC3)ccc2N)CC1 |
| 75 to 76 °C | CCCCCCCCCCCCCCCC(=O)NC(C)CO (configuration not stated) |

| melting point | SMILES |
| --- | --- |
| 259 to 260 °C | CC(=O)NCC1CN(c2ccc(C(=O)c3cnc4n3CCS4)cc2)C(=O)O1 (configuration not stated) |
| 110 to 111 °C | CCCC/C=C\CCCCCCCC(=O)Nc1nc(CC(=O)O)cs1 |
| 141 to 144 °C | CCN1CCC(=O)N(c2c(C)cccc2Cl)C1=S |
| 155 to 156 °C | CC(=O)Nc1c(C(O)(C(F)(F)F)C(F)(F)F)ccc2ccccc12 |
| 205 °C | COc1cc(F)c(N2CCCC2=O)c(S(N)(=O)=O)c1 |
| 75.5 to 77 °C | CC(Cl)(Cl)C(Cl)(Cl)c1cccc([N+](=O)[O-])c1 |
| 225 °C | Cc1[nH]c(=S)n(Nc2cccc(Cl)c2)c1-c1ccc(Cl)cc1 |
| 50.5 to 52.5 °C | CCCC[C@H](NC(=O)OC(C)(C)C)C(=O)CCCc1cccs1 |
| 130 to 131 °C | C/C(=C\c1ccc(OC(C)C)cc1Oc1ncc(C(F)(F)F)cc1Cl)C(=O)NS(=O)(=O)NCCc1cccs1 |
| 128 °C | NC(=O)c1ccc(F)c2c1OCC(N)C2 (configuration not stated) |
| 95 to 97 °C | COC(=O)CCc1nc(C=O)ccc1OC |
| 99 to 110 °C | CCNC(=O)c1ccccc1Nc1nc(Nc2cc3c(cc2OC)CCN(CC(=O)NC)CC3)ncc1Cl |
| 227 to 229 °C | COc1cccc(OCC(N)=O)c1-c1c(C#N)c2ccccn2c1Nc1c(C)cccc1C |
| 159 to 161 °C | COc1cc(C(=O)O)ccc1OCCCCCOc1ccc(C#N)cc1 |
| 139 to 141 °C | NCCCc1cn(S(=O)(=O)c2c(Cl)nc3sccn23)c2ccc(F)cc12 |
| 120 to 122 °C | CC(C)(C)OC(=O)NCCNC(=O)c1ncccc1Oc1ccc(Cl)cc1 |
| 62 to 64 °C | CNC(=O)c1cc2c(Oc3ccc(Cl)c(F)c3)cncc2s1 |
| 146 °C | Cc1cc(N)c(C)c(C(=O)O)c1 |
| 110 °C | COC(=O)NNC(=S)CC1CCCCO1 (configuration not stated) |
| 136 to 138 °C | COc1ccc2c(c1)c(CC(=O)OCC(=O)O)c(C)n2C(=O)c1cccc(C(F)(F)F)c1 |
| 155 to 156 °C | CC1=C(c2ccc(F)c(F)c2)C(=NO)CC1 |
| 128 to 129 °C | CCN1C(=O)CN(C(=O)C(F)(F)F)Cc2cc(OC)c([N+](=O)[O-])cc21 |
| 110 °C | O=C(O)CN1C(=O)CC1SCc1ccccc1 (configuration not stated) |
| 71 to 72 °C | C[C@@H](N1CCN(c2nnn(Cc3ccc(C(F)(F)F)cc3)n2)CC1)[C@](O)(Cn1cncn1)c1ccc(F)cc1F |

| melting point | SMILES |
| --- | --- |
| 82 to 84 °C | CCSC(=S)N1C(CO)Cc2c([nH]c3ccccc23)C1CC (configuration not stated) |
| 154 to 155 °C | COc1ccccc1Cc1nc2ccccc2c(=O)n1CCO |
| 156 to 157 °C | Cc1cc(=O)n(C)c2c1C(=O)CC(c1ccsc1)C2 (configuration not stated) |
| > 300 °C | O=C(CNc1ccc(S(=O)(=O)O)cc1)c1ccccc1 |
| 270 to 275 °C | O[C@H]1CC[C@@H](Nc2ncc3ncnc(Nc4ccc(F)c(Cl)c4)c3n2)CC1 |
| 104 to 105 °C | C#CCn1c(-c2cccnc2)c(C)c2ccccc21 |
| 163 to 164 °C | CNc1nc(Cl)c(SC)c(N2CCN(c3ccccc3)CC2)n1 |
| 103 to 105 °C | O=P(c1ccccc1)(c1ccc(F)cc1)c1ccc(F)cc1 |
| 194 to 199 °C | CNS(=O)(=O)N=C(NC(=O)OC)C(C)C |
| 57 to 58 °C | COC(=O)CCCCCCC(=O)c1ccc(OC)cc1 |
| 55 to 61 °C | CCOC(=O)[C@H]1O[C@@H]1[C@H](Cc1ccccc1)NC(=O)OC(C)(C)C |
| 155 to 156 °C | Cc1ccc(Nc2c(F)cccc2C(F)(F)F)c(CC(=O)O)c1 |
| 219 to 220 °C | CC1(C)CC(=C(c2ccc(O)cc2)c2ccc(/C=C/C(=O)O)cc2)CC(C)(C)C1 |
| > 300 °C | O=C(O)C=Cc1ccc(CCc2ccncc2)cc1 |
| 81 °C | CC(C)(C)Cc1c(C(C)(C)C)ssc1=S |
| 90 °C | COC(=O)C=Cc1cc(Oc2c(Cl)cc(C(F)(F)F)cc2Cl)ccc1[N+](=O)[O-] |
| 52 °C | FC(F)(F)c1ccc2sc(CCl)nc2c1 |
| 96 to 99 °C | CCCc1c(OCCOCCOc2c(C(C)=O)ccc(OCC(=O)O)c2CCC)ccc(C(C)=O)c1O |
| > 260 °C | Cc1ccc(C)n1C1=CC2=C(CC1)CCc1[nH]c(=O)c(=O)n(OCC(=O)O)c12 |
| 133 °C | CS(=O)(=O)c1ccc(NCC(O)CO)c([N+](=O)[O-])c1 (configuration not stated) |
| 86 to 88 °C | CCCC[C@H](NC(=O)[C@H](CC(C)C)NC(=O)COc1ccc(OC)cc1)C(=O)CSCc1ccco1 |
| 178 to 179 °C | Cc1ccccc1CC(=NC#N)NC(NC(=O)Cc1ccc(F)c(F)c1)C(C)(C)C (configuration not stated) |
| 180 to 182 °C | Cc1c(C(=O)O)ccc2c1OCO2 |
| 240 to 242 °C | COC(=O)C1CN(C(=O)c2ccccc2-n2cccn2)c2ccc(C)cc2CN1S(=O)(=O)c1ccc(OC)cc1 (configuration not stated) |

| SMILES | melting point |
| --- | --- |
| CCCN1C(=O)C2C3CCC(O3)C2C1=O (configuration not stated) | 79 to 80 °C |
| CCCc1c(C(=O)C2CCCC2)c2ccc(C(N)=O)cc2n1Cc1ccccc1Cl | 202 °C |
| CCCN1CC(NS(=O)(=O)N(CC)CC)CC2c3cccc4[nH]cc(c34)CC21 (configuration not stated) | 160 to 162 °C |
| CCCCCCc1cc2c(s1)-n1c(C)nnc1CN=C2c1ccccc1Cl | 111 to 113 °C |
| Nc1nc(N)nc(C=Cc2ccc(C=C3C(=O)NC(=O)NC3=O)cc2)n1 | > 350 °C |
| CCCc1c(C(=O)C2CCCCC2)c2ccc(C(N)=O)cc2n1Cc1ccccc1Cl | 208 to 210 °C |
